The record followed here is ChEMBL document CHEMBL1201862, “PubChem BioAssay data set” (2004).

Each structure is given as a SMILES string.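 Dose response: 5 concentrations. Exposure: 48 h. Format: 96-well plates. Endpoint: linear interpolation; highest concentration if not reached. The concentration for 50% growth inhibition is given as GI50.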 The source made the active and inactive calls. Cut-off read from the data, not from the text of the source: active = GI50 up to about 1.1 µM and inactive = higher. Some results are limits rather than exact numbers.

Some test systems named below: UO-31; SF-268; SN12C; Malme-3M; SR; T47D; A549; SNB-19; NCI-H226; CCRF-CEM; KM12; HCT-116; EKVX; OVCAR-3; HL-60; RXF 393; NCI-H522; TK-10; HOP-62; BT-549.
Holding throughout (experiment): NCI anticancer screen, dose series, 48 h

On to `OC(CCNCc1ccccc1)c1ccc2ccccc2c1` (stereo not drawn), for which the GI50 was 16 µM (inactive) in the experiment on UO-31; 18.9 µM (inactive) in the experiment on SF-268; 29.1 µM (inactive) with SN12C; 22 µM (inactive) in the experiment with Malme-3M; 35.6 µM (inactive) in the experiment with SR; 24 µM (inactive) with T47D. Besides, the GI50 with A549 was 19 µM (inactive); with SNB-19 it was 23.7 µM (inactive); in the experiment with NCI-H226 it was 23.8 µM (inactive); in the experiment on CCRF-CEM, 1.68 µM (inactive); in the experiment with KM12 it was 17 µM (inactive); with HCT-116 it was 22.4 µM (inactive). Besides, the GI50 in the experiment on EKVX was 34.8 µM (inactive); with OVCAR-3 it was 13.3 µM (inactive); in the experiment on HL-60 it was 19.5 µM (inactive); in the experiment on RXF 393, 16.7 µM (inactive); in the experiment on NCI-H522, 18.7 µM (inactive); in the experiment on TK-10 it was 18.3 µM (inactive). Besides, the GI50 in the experiment on HOP-62 was 19.3 µM (inactive).
Take `Brc1ccc2c(-c3csc(-c4c[nH]c5ccccc45)n3)c[nH]c2c1`: the GI50 in the experiment with UO-31 was 14 µM (inactive); with SF-268 it was 18.3 µM (inactive); in the experiment on SN12C, 17.3 µM (inactive); in the experiment with Malme-3M it was 16.9 µM (inactive); in the experiment with BT-549, 18.3 µM (inactive); with T47D it was 24.8 µM (inactive). Further, the GI50 in the experiment with A549 is 15.8 µM (inactive); in the experiment on SNB-19 it was 17.8 µM (inactive); in the experiment with NCI-H226, 14.5 µM (inactive); in the experiment on CCRF-CEM, 14.7 µM (inactive); in the experiment with KM12, 14.2 µM (inactive); in the experiment on HCT-116 it was 14.7 µM (inactive). Further, the GI50 in the experiment on EKVX is 15.6 µM (inactive); in the experiment with OVCAR-3, 13.8 µM (inactive); in the experiment on RXF 393, 22.4 µM (inactive); with NCI-H522, 17.3 µM (inactive); with TK-10 it was 12.4 µM (inactive); with HOP-62, 15 µM (inactive).
As for `COC(=O)CCc1ccc2c(c1)C(=O)CC2`, the GI50 in the experiment on UO-31, with SF-268, in the experiment on Malme-3M, in the experiment with SR, in the experiment with T47D and in the experiment on A549 was > 100 µM (inactive) each time. Also, the GI50 in the experiment with SNB-19, in the experiment on CCRF-CEM, with HCT-116, in the experiment on EKVX, in the experiment with OVCAR-3 and in the experiment with HL-60 was > 100 µM (inactive) each time. The GI50 with RXF 393, in the experiment on NCI-H522, with TK-10 and in the experiment on HOP-62 was > 100 µM (inactive) throughout.
In the case of `Cc1ccc(S(=O)(=O)N(CC(O)COc2ccccc2)c2c(F)cccc2F)cc1` (stereo not drawn), the GI50 was 15.7 µM (inactive) with UO-31; 17.1 µM (inactive) in the experiment on SF-268; 21.1 µM (inactive) with SN12C; 21 µM (inactive) with Malme-3M; 21.8 µM (inactive) with SR; 2.21 µM (inactive) in the experiment with T47D. The GI50 was 17.3 µM (inactive) in the experiment with A549; 33.3 µM (inactive) in the experiment with SNB-19; 21.9 µM (inactive) in the experiment with NCI-H226; 28.7 µM (inactive) in the experiment on CCRF-CEM; 17.7 µM (inactive) in the experiment with KM12; 23.3 µM (inactive) in the experiment on EKVX. In addition, the GI50 is 11.6 µM (inactive) with OVCAR-3; 29.4 µM (inactive) with HL-60; 10.5 µM (inactive) with RXF 393; 33.7 µM (inactive) with TK-10; 19.2 µM (inactive) in the experiment on HOP-62.
On to `N#C[C@H]1C(=O)C(c2nc3ccccc3[nH]2)S[C@H]1c1ccccc1` (stereo partly drawn), for which the GI50 in the experiment on UO-31 was 26.9 µM (inactive); in the experiment with SN12C it was 20 µM (inactive); with Malme-3M it was 29.9 µM (inactive); in the experiment with BT-549, 26.5 µM (inactive); with SR, 28.8 µM (inactive); with A549 it was 45.4 µM (inactive). Besides, the GI50 in the experiment with SNB-19 was 45.4 µM (inactive); in the experiment on NCI-H226 it was 85.3 µM (inactive); in the experiment with CCRF-CEM, 38.4 µM (inactive); with KM12, 44.2 µM (inactive); in the experiment with HCT-116, 27.4 µM (inactive); in the experiment on EKVX, 28.9 µM (inactive). For the same compound, the GI50 was 31 µM (inactive) with OVCAR-3; 25.4 µM (inactive) in the experiment with HL-60; 19.1 µM (inactive) with RXF 393; 21.2 µM (inactive) in the experiment with NCI-H522; 95.9 µM (inactive) in the experiment with TK-10.
With `O=[N+]([O-])C(/C(Cl)=C(/Cl)N1CCCCC1)=C1\NCCO1`, the GI50 with UO-31, with SF-268, in the experiment with SN12C, in the experiment with Malme-3M, in the experiment with BT-549 and with T47D was > 100 µM (inactive) throughout. Further, the GI50 with A549, in the experiment on SNB-19, in the experiment with NCI-H226, in the experiment on CCRF-CEM, in the experiment on KM12 and in the experiment with HCT-116 was > 100 µM (inactive) throughout. Further, the GI50 in the experiment with EKVX, with OVCAR-3 and in the experiment with HOP-62 was > 100 µM (inactive) in each case.
Turning to `CCOC(=O)/C(=C\n1c(=O)sc2ccccc21)C(=O)c1ccccc1`, the GI50 in the experiment on UO-31 is 26 µM (inactive); in the experiment on SF-268 it was > 100 µM (inactive); with SN12C, > 100 µM (inactive); with Malme-3M it was > 100 µM (inactive); with SR, 58.7 µM (inactive); in the experiment on T47D it was 22.4 µM (inactive). The GI50 in the experiment with A549, in the experiment on NCI-H226, in the experiment on CCRF-CEM, in the experiment on KM12, in the experiment on HCT-116 and in the experiment on EKVX was > 100 µM (inactive) throughout. Also, the GI50 in the experiment on HL-60 is 33.5 µM (inactive); with RXF 393, > 100 µM (inactive); with NCI-H522 it was 48 µM (inactive); with HOP-62, > 100 µM (inactive).
In the case of `CC[C@@]1(OC(=O)CN(C)C)C(=O)OCc2c1cc1n(c2=O)Cc2cc3ccccc3nc2-1`, the GI50 with UO-31 is 0.0296 µM (active); with SF-268, < 0.0131 µM (active); with SN12C it was < 0.0191 µM (active); in the experiment on Malme-3M, 0.347 µM (active); with BT-549 it was 0.0536 µM (active); in the experiment on A549, 0.0365 µM (active). For the same compound, the GI50 was 0.0208 µM (active) with SNB-19; 0.0356 µM (active) in the experiment with NCI-H226; 0.00256 µM (active) in the experiment on CCRF-CEM; 0.223 µM (active) in the experiment with KM12; 0.0481 µM (active) in the experiment on HCT-116; 0.863 µM (active) with EKVX. Besides, the GI50 is 0.32 µM (active) in the experiment with OVCAR-3; 0.0105 µM (active) in the experiment with HL-60; 0.139 µM (active) in the experiment with RXF 393; 0.255 µM (active) in the experiment on NCI-H522; 1.93 µM (inactive) in the experiment on TK-10; 0.0234 µM (active) with HOP-62.
Consider `C[C@]12CCC(=O)O[C@H]1CCCCO2`, for which the GI50 with SF-268, in the experiment with SN12C, with Malme-3M, in the experiment with SR, with T47D and with A549 was > 100 µM (inactive) in each case. The GI50 in the experiment with NCI-H226, in the experiment on CCRF-CEM, with KM12, in the experiment on HCT-116, in the experiment on EKVX and with OVCAR-3 was > 100 µM (inactive) throughout. The GI50 in the experiment on HL-60, in the experiment on RXF 393, in the experiment on NCI-H522, in the experiment on TK-10 and in the experiment on HOP-62 was > 100 µM (inactive) in each case.
